Assay results taken from the supplement of paper PMC10307832.

Legend:
Assay in all cases: relative viability (nuclei count vs DMSO), 5 days (fraction); higher = more cells survive
MK-2206 + Crizotinib = compound: NC1(c2ccc(-c3nc4ccn5c(=O)[nH]nc5c4cc3-c3ccccc3)cc2)CCC1 [MK-2206] + C[C@@H](Oc1cc(-c2cnn(C3CCNCC3)c2)cnc1N)c1c(Cl)ccc(F)c1Cl [Crizotinib] (partner 1 µM)
In short: (§1)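 Lung cancer cell lines in 1536-well plates were dosed by pin tool the day after seeding, either with one drug alone or with a fixed anchor-drug dose plus five library-drug doses (not always all listed) in √10 steps. After 5 days, cells were fixed and their nuclei stained in one step (final 0.05% Triton X-100, 1% formaldehyde, 1 ug/ml Hoechst), then counted on 4× images. Relative viability is the nuclei count in treated wells divided by that in vehicle wells. Values are medians of duplicate plates.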

Pictilisib + Pemetrexed = compound: CS(=O)(=O)N1CCN(Cc2cc3nc(-c4cccc5[nH]ncc45)nc(N4CCOCC4)c3s2)CC1 [Pictilisib] + Nc1nc2[nH]cc(CCc3ccc(C(=O)N[C@@H](CCC(=O)O)C(=O)O)cc3)c2c(=O)[nH]1 [Pemetrexed] (partner 0.2 µM)
In short: as §1

MK-2206 + AZD7762 = compound: NC1(c2ccc(-c3nc4ccn5c(=O)[nH]nc5c4cc3-c3ccccc3)cc2)CCC1 [MK-2206] + NC(=O)Nc1cc(-c2cccc(F)c2)sc1C(=O)N[C@H]1CCCNC1 [AZD7762] (partner 0.2 µM)
In short: as §1

MK-2206 + Trametinib = compound: NC1(c2ccc(-c3nc4ccn5c(=O)[nH]nc5c4cc3-c3ccccc3)cc2)CCC1 [MK-2206] + CC(=O)Nc1cccc(-n2c(=O)n(C3CC3)c(=O)c3c(Nc4ccc(I)cc4F)n(C)c(=O)c(C)c32)c1 [Trametinib] (partner 0.02 µM)
In short: as §1

Pictilisib + Bortezomib = compound: CS(=O)(=O)N1CCN(Cc2cc3nc(-c4cccc5[nH]ncc45)nc(N4CCOCC4)c3s2)CC1 [Pictilisib] + CC(C)C[C@H](NC(=O)[C@H](Cc1ccccc1)NC(=O)c1cnccn1)B(O)O [Bortezomib] (partner 0.002 µM)
In short: as §1

Cell Line | relative viability (MK-2206 + Crizotinib; first compound 0.01 µM) | relative viability (MK-2206 + Crizotinib; first compound 0.03162 µM) | relative viability (MK-2206 + Crizotinib; first compound 0.3162 µM) | relative viability (MK-2206 + Crizotinib; first compound 1 µM) | relative viability (Pictilisib + Pemetrexed; first compound 0.02 µM) | relative viability (Pictilisib + Pemetrexed; first compound 0.06325 µM) | relative viability (Pictilisib + Pemetrexed; first compound 0.6325 µM) | relative viability (Pictilisib + Pemetrexed; first compound 2 µM) | relative viability (MK-2206 + AZD7762; first compound 0.01 µM) | relative viability (MK-2206 + AZD7762; first compound 0.03162 µM) | relative viability (MK-2206 + AZD7762; first compound 0.3162 µM) | relative viability (MK-2206 + AZD7762; first compound 1 µM) | relative viability (MK-2206 + Trametinib; first compound 0.01 µM) | relative viability (MK-2206 + Trametinib; first compound 0.03162 µM) | relative viability (MK-2206 + Trametinib; first compound 0.3162 µM) | relative viability (MK-2206 + Trametinib; first compound 1 µM) | relative viability (Pictilisib + Bortezomib; first compound 0.02 µM) | relative viability (Pictilisib + Bortezomib; first compound 0.06325 µM) | relative viability (Pictilisib + Bortezomib; first compound 0.6325 µM) | relative viability (Pictilisib + Bortezomib; first compound 2 µM)
RERF-LC-KJ | 0.808 | 0.806 | 0.871 | 0.842 | 0.459 | 0.478 | 0.448 | 0.404 | 0.915 | 1.15 | 0.84 | 1.01 | 0.808 | 0.903 | 0.725 | 0.718 | 1.13 | 1.13 | 1.09 | 0.672
NCI-H1975 | 0.96 | 0.866 | 0.855 | 0.894 | 0.304 | 0.301 | 0.272 | 0.193 | 0.745 | 0.748 | 0.595 | 0.582 | 0.305 | 0.352 | 0.261 | 0.371 | 0.358 | 0.443 | 0.284 | 0.239
LCLC-97TM1 | 0.34 | 0.329 | 0.303 | 0.284 | 0.155 | 0.169 | 0.169 | 0.147 | 0.294 | 0.12 | 0.285 | 0.333 | 0.195 | 0.205 | 0.191 | 0.206 | 0.807 | 0.998 | 0.374 | 0.184
A-427 | 0.896 | 0.824 | 0.742 | 0.893 | 0.955 | 0.984 | 0.969 | 0.803 | 0.751 | 0.596 | 0.598 | 0.601 | 0.819 | 0.748 | 0.666 | 0.62 | 1.03 | 0.949 | 0.985 | 0.858
NCI-H460 | 0.86 | 0.905 | 0.855 | 0.893 | 0.0594 | 0.0727 | 0.0616 | 0.0599 | 0.692 | 0.366 | 0.612 | 0.644 | 0.154 | 0.193 | 0.0937 | 0.0745 | 1.1 | 1.36 | 0.57 | 0.111
NCI-H23 | 0.563 | 0.619 | 0.53 | 0.543 | 0.618 | 0.757 | 0.5 | 0.374 | 0.333 | 0.192 | 0.188 | 0.229 | 0.267 | 0.342 | 0.345 | 0.299 | 0.936 | 1.12 | 0.768 | 0.445
LOU-NH91 | 0.709 | 0.727 | 0.72 | 0.715 | 0.381 | 0.368 | 0.4 | 0.372 | 0.8 | 0.751 | 0.705 | 0.605 | 0.793 | 0.817 | 0.77 | 0.686 | 0.456 | 0.455 | 0.502 | 0.401
NCI-H2126 | 1.01 | 1.02 | 1.01 | 0.979 | 0.692 | 0.661 | 0.518 | 0.379 | 0.971 | 0.96 | 0.94 | 0.996 | 0.559 | 0.543 | 0.515 | 0.455 | 1.05 | 1.15 | 1.07 | 0.923
ChaGo-K-1 | 1.08 | 1.11 | 0.961 | 1.14 | 0.265 | 0.268 | 0.231 | 0.237 | 0.875 | 0.796 | 0.858 | 0.93 | 0.894 | 0.867 | 0.881 | 0.904 | 1.16 | 1.1 | 1.09 | 0.828
NCI-H1437 | 0.852 | 0.938 | 0.914 | 0.997 | 0.317 | 0.318 | 0.274 | 0.215 | 1.18 | 1.11 | 1.16 | 1.09 | 0.577 | 0.51 | 0.44 | 0.403 | 0.582 | 0.488 | 0.532 | 0.231
NCI-H838 | 0.857 | 0.812 | 0.834 | 0.765 | 0.24 | 0.251 | 0.314 | 0.184 | 0.935 | 0.872 | 0.969 | 0.906 | 0.504 | 0.507 | 0.498 | 0.354 | 0.77 | 0.744 | 0.606 | 0.313
NCI-H1755 | 0.875 | 0.836 | 0.798 | 0.727 | 0.472 | 0.397 | 0.396 | 0.329 | 0.508 | 0.328 | 0.458 | 0.432 | 0.756 | 0.768 | 0.671 | 0.699 | 1.01 | 0.906 | 0.86 | 0.339
NCI-H1915 | 0.911 | 0.923 | 0.874 | 0.905 | 0.548 | 0.524 | 0.464 | 0.394 | 0.74 | 0.573 | 0.735 | 0.576 | 0.3 | 0.315 | 0.282 | 0.293 | 0.981 | 1.03 | 0.606 | 0.9
NCI-H2347 | 0.733 | 0.761 | 0.708 | 0.67 | 0.459 | 0.455 | 0.391 | 0.367 | 0.778 | 0.652 | 0.649 | 0.636 | 0.325 | 0.262 | 0.284 | 0.263 | 1.05 | 1.12 | 0.938 | 0.567
HARA | 1.11 | 1.08 | 0.986 | 0.979 | 0.277 | 0.329 | 0.239 | 0.212 | 0.0277 | 0.264 | 0.179 | 0.4 | 0.63 | 0.553 | 0.677 | 0.788 | 1.21 | 1.14 | 1.08 | 0.842
